# Earlier results, collected in patent US20250221949A1, “ANTISEPTIC, ANTISEBORRHEIC, EXFOLIATING COMPOSITION TO REMOVE OR PREVENT ACNE” (Excalibur Pharmaceuticals, Inc., priority 2012, published 2025).
# Tested on: Candida albicans, some Trichomonas, Staphylococcus aureus; Escherichia coli, Salmonella typhi, S. paratyphi, Shigella dysenterica and Vibro cholera species
# Conditions: background statement
smiles,measurement,value
"C=CCS[S+]([O-])CC=C (stereo not shown) [DDO, diallyl disulphide oxide]",in vitro activity against microorganisms (in words),has in vitro activity
